From ChEMBL document CHEMBL1201862, “PubChem BioAssay data set” (2004)
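Assay format: 96-well plates, 48-hour exposure. GI50 marks 50% less growth.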 Calls of active or inactive are those of the source. Rule as the data show it: active = GI50 up to about 1.1 µM and inactive = higher. Where a SMILES comes first, the peptide text is derived from it. The star is where a group is joined. Boc = CC(C)(C)OC(=O)*; Bn = c1ccc(C*)cc1

Tests used:
Assay in all cases: growth of human tumour cells (NCI), 48 h
HL-60 = tested on: HL-60
UACC-257 = tested on: UACC-257
M14 = tested on: M14
DU-145 = tested on: DU-145
SN12C = tested on: SN12C
OVCAR-5 = tested on: OVCAR-5
NCI-H460 = tested on: NCI-H460
RPMI-8226 = tested on: RPMI-8226
IGROV-1 = tested on: IGROV-1
CCRF-CEM = tested on: CCRF-CEM
CAKI-1 = tested on: CAKI-1
SK-OV-3 = tested on: SK-OV-3
UO-31 = tested on: UO-31
KM12 = tested on: KM12
U-251 = tested on: U-251
SF-539 = tested on: SF-539
HCT-116 = tested on: HCT-116
RXF 393 = tested on: RXF 393
SF-268 = tested on: SF-268
MDA-MB-231 = tested on: MDA-MB-231

N#C/C(C(=O)Nc1ccc(Cl)cc1)=C(/N)N1CCCC1
GI50 (HL-60): 0.635 µM (active) | GI50 (UACC-257): > 100 µM (inactive) | GI50 (M14): > 100 µM (inactive) | GI50 (DU-145): > 100 µM (inactive) | GI50 (SN12C): > 100 µM (inactive) | GI50 (OVCAR-5): > 100 µM (inactive) | GI50 (NCI-H460): > 100 µM (inactive) | GI50 (RPMI-8226): > 100 µM (inactive) | GI50 (IGROV-1): > 100 µM (inactive) | GI50 (CCRF-CEM): > 100 µM (inactive) | GI50 (CAKI-1): > 100 µM (inactive) | GI50 (SK-OV-3): > 100 µM (inactive) | GI50 (UO-31): > 100 µM (inactive) | GI50 (KM12): > 100 µM (inactive) | GI50 (U-251): > 100 µM (inactive) | GI50 (SF-539): > 100 µM (inactive) | GI50 (HCT-116): > 100 µM (inactive)

O=C(CSc1nc2ccc(I)cc2c(=O)n1Cc1ccccc1)NNC(=S)Nc1ccccc1
GI50 (HL-60): 25.5 µM (inactive) | GI50 (RXF 393): > 100 µM (inactive) | GI50 (UACC-257): 14.7 µM (inactive) | GI50 (M14): 62.2 µM (inactive) | GI50 (DU-145): > 100 µM (inactive) | GI50 (SN12C): 3.9 µM (inactive) | GI50 (OVCAR-5): > 100 µM (inactive) | GI50 (NCI-H460): 5.47 µM (inactive) | GI50 (RPMI-8226): 12.6 µM (inactive) | GI50 (SF-268): 5.27 µM (inactive) | GI50 (IGROV-1): 2.91 µM (inactive) | GI50 (CCRF-CEM): 6.14 µM (inactive) | GI50 (CAKI-1): 3.33 µM (inactive) | GI50 (SK-OV-3): > 100 µM (inactive) | GI50 (KM12): 34.4 µM (inactive) | GI50 (U-251): 6.24 µM (inactive) | GI50 (HCT-116): 8.63 µM (inactive)

CC(C)CC(=O)CC(C)[C@]1(CCCOCc2ccccc2)C(=O)N2CCC3(C[C@@]24CCC[C@H]41)OCCO3 (stereo partly drawn)
GI50 (HL-60): > 10 µM (inactive) | GI50 (M14): > 10 µM (inactive) | GI50 (SN12C): > 10 µM (inactive) | GI50 (MDA-MB-231): > 10 µM (inactive) | GI50 (OVCAR-5): > 10 µM (inactive) | GI50 (NCI-H460): > 10 µM (inactive) | GI50 (RPMI-8226): > 10 µM (inactive) | GI50 (SF-268): > 10 µM (inactive) | GI50 (IGROV-1): > 10 µM (inactive) | GI50 (CCRF-CEM): > 10 µM (inactive) | GI50 (CAKI-1): > 10 µM (inactive) | GI50 (SK-OV-3): > 10 µM (inactive) | GI50 (UO-31): > 10 µM (inactive) | GI50 (KM12): > 10 µM (inactive) | GI50 (U-251): > 10 µM (inactive) | GI50 (SF-539): > 10 µM (inactive)

CSc1cc(Cl)c(C)cc1S(=O)(=O)NC(=O)Nc1ccc(Cl)cc1
GI50 (HL-60): 12.3 µM (inactive) | GI50 (RXF 393): 22.9 µM (inactive) | GI50 (UACC-257): 28.5 µM (inactive) | GI50 (M14): 39.9 µM (inactive) | GI50 (SN12C): 36.5 µM (inactive) | GI50 (MDA-MB-231): 29.5 µM (inactive) | GI50 (OVCAR-5): 45.3 µM (inactive) | GI50 (NCI-H460): 29.1 µM (inactive) | GI50 (RPMI-8226): 30.9 µM (inactive) | GI50 (SF-268): 35.9 µM (inactive) | GI50 (IGROV-1): 39.6 µM (inactive) | GI50 (CCRF-CEM): 12.6 µM (inactive) | GI50 (CAKI-1): 41.6 µM (inactive) | GI50 (SK-OV-3): 38.7 µM (inactive) | GI50 (UO-31): 17 µM (inactive) | GI50 (KM12): 24.1 µM (inactive) | GI50 (U-251): 36.6 µM (inactive) | GI50 (HCT-116): 17.5 µM (inactive)

COC(=O)C1=Cc2cc3c(cc2[C@H](c2ccc4c(c2)OCO4)C1C(=O)OC)OCO3 (stereo partly drawn)
GI50 (HL-60): 65.6 µM (inactive) | GI50 (RXF 393): 80.4 µM (inactive) | GI50 (UACC-257): > 100 µM (inactive) | GI50 (M14): 68.1 µM (inactive) | GI50 (SN12C): > 100 µM (inactive) | GI50 (OVCAR-5): > 100 µM (inactive) | GI50 (NCI-H460): 89.9 µM (inactive) | GI50 (RPMI-8226): > 100 µM (inactive) | GI50 (SF-268): > 100 µM (inactive) | GI50 (IGROV-1): 1.73 µM (inactive) | GI50 (CCRF-CEM): > 100 µM (inactive) | GI50 (CAKI-1): 74.1 µM (inactive) | GI50 (SK-OV-3): > 100 µM (inactive) | GI50 (UO-31): > 100 µM (inactive) | GI50 (KM12): 67.1 µM (inactive) | GI50 (U-251): 61.4 µM (inactive) | GI50 (SF-539): > 100 µM (inactive) | GI50 (HCT-116): 41.7 µM (inactive)

COC(=O)C(CC(C)C)NC(=O)C(C)NC(=O)C(Cc1ccc(OCc2ccccc2)cc1)NC(=O)C(COCc1ccccc1)NC(=O)OC(C)(C)C (stereo not drawn) (Boc-S(Bn)Y(Bn)AL-OMe; configuration not given here)
GI50 (HL-60): 41.2 µM (inactive) | GI50 (RXF 393): > 100 µM (inactive) | GI50 (M14): > 100 µM (inactive) | GI50 (DU-145): > 100 µM (inactive) | GI50 (SN12C): > 100 µM (inactive) | GI50 (OVCAR-5): > 100 µM (inactive) | GI50 (NCI-H460): > 100 µM (inactive) | GI50 (RPMI-8226): > 100 µM (inactive) | GI50 (SF-268): > 100 µM (inactive) | GI50 (IGROV-1): > 100 µM (inactive) | GI50 (CAKI-1): > 100 µM (inactive) | GI50 (SK-OV-3): > 100 µM (inactive) | GI50 (UO-31): > 100 µM (inactive) | GI50 (KM12): > 100 µM (inactive) | GI50 (U-251): > 100 µM (inactive) | GI50 (SF-539): > 100 µM (inactive) | GI50 (HCT-116): > 100 µM (inactive)
